PubChem BioAssay AID330 (DTP/NCI, 2004)
Where “and” joins values, the source holds several entries; their conditions need not be identical. Equal entries are not always repeated. Inconclusive results and toxic doses are left out.

Tested on: P388 leukemia ip, CD2F1 mice, survival T/C
Assay: NCI In Vivo Anticancer Drug Screen. Data for tumor model P388 Leukemia (intraperitoneal) in CD2F1 (CDF1) mice
Conditions: endpoint: median survival time, higher = longer survival
In short: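 Mice carrying the transplanted tumor received test compound or vehicle. Survival was recorded in each group, and the value is the treated-group measurement divided by that of the vehicle-treated control group.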

[1] = dose: 50.0 mg/kg/injection, schedule: Q01DX009 (ip), vehicle: saline with Tween-80
[2] = dose: 200.0 mg/kg/injection, schedule: Q01DX009 (ip), vehicle: saline with Tween-80
[3] = dose: 50.0 mg/kg/injection, schedule: Q01DX005 (ip), vehicle: saline with Tween-80
[4] = dose: 100.0 mg/kg/injection, schedule: Q01DX005 (ip), vehicle: saline with Tween-80
[5] = dose: 200.0 mg/kg/injection, schedule: Q01DX005 (ip), vehicle: saline with Tween-80
[6] = dose: 50.0 mg/kg/injection, schedule: Q01DX009 (ip), vehicle: saline
[7] = dose: 100.0 mg/kg/injection, schedule: Q01DX009 (ip), vehicle: saline
[8] = dose: 200.0 mg/kg/injection, schedule: Q01DX009 (ip), vehicle: saline
[9] = dose: 60.0 mg/kg/injection, schedule: Q01DX005 (ip), vehicle: saline with Tween-80
[10] = dose: 120.0 mg/kg/injection, schedule: Q01DX005 (ip), vehicle: saline with Tween-80
[11] = dose: 240.0 mg/kg/injection, schedule: Q01DX005 (ip), vehicle: saline with Tween-80
[12] = dose: 100.0 mg/kg/injection, schedule: Q01DX009 (ip), vehicle: saline with Tween-80

CCN1CC2(C)CCC(OC)C34C1[C@H](C(=O)[C@@H]23)[C@]1(O)CC[C@H]2C[C@H]4[C@H]1C(=O)O2 (stereo partly specified)
T/C (dose: 1.0 mg/kg/injection, schedule: Q01DX009 (ip), vehicle: Klucel (hydroxypropylcellulose) (HPC)): 95 % of control
T/C (dose: 2.0 mg/kg/injection, schedule: Q01DX009 (ip), vehicle: Klucel (hydroxypropylcellulose) (HPC)): 96 % of control
T/C (dose: 4.0 mg/kg/injection, schedule: Q01DX009 (ip), vehicle: Klucel (hydroxypropylcellulose) (HPC)): 98 % of control

CCCCCCCCC#CCCCCCCCCCCCC(=O)O
T/C [1]: 88 % of control
T/C [2]: 90 % of control

CCN(CC)C(=O)c1c(C(=O)OC)c(C)n(NC(N)=O)c1C
T/C [3]: 105 % of control
T/C [4]: 107 % of control
T/C [5]: 108 % of control

OCc1cnccc1Cl
T/C (dose: 60.0 mg/kg/injection, schedule: Q01DX005 (ip), vehicle: saline): 95 % of control
T/C (dose: 120.0 mg/kg/injection, schedule: Q01DX005 (ip), vehicle: saline): 100 % of control

C=C(C)C(=O)NC(Cc1cnc[nH]1)C(=O)O (stereo unspecified)
T/C [6]: 106 % of control
T/C [7]: 107 % of control
T/C [8]: 107 % of control

COc1ccc(NC(=O)C(COCc2ccccc2)C(C)=O)cc1 (stereo unspecified)
T/C [9]: 94 % of control
T/C [10]: 91 % of control
T/C [11]: 92 % of control

CC(C)SC1NC(=O)N(C)C1=O (stereo unspecified)
T/C [1]: 100 % of control
T/C [12]: 107 % of control
T/C [2]: 100 % of control

COC(=O)C(C)(OC)SC (stereo unspecified)
T/C [9]: 106 % of control
T/C [10]: 100 % of control
T/C [11]: 98 % of control

O=C(c1ccccc1)C1Nc2ccccc2CO1 (stereo unspecified)
T/C (dose: 60.0 mg/kg/injection, schedule: Q01DX005 (ip), vehicle: Klucel (hydroxypropylcellulose) (HPC)): 99 % of control
T/C (dose: 120.0 mg/kg/injection, schedule: Q01DX005 (ip), vehicle: Klucel (hydroxypropylcellulose) (HPC)): 107 % of control
T/C (dose: 240.0 mg/kg/injection, schedule: Q01DX005 (ip), vehicle: Klucel (hydroxypropylcellulose) (HPC)): 97 % of control

O=C(O)C(O)C(O)C(O)C(O)CO.[Mn] (stereo unspecified)
T/C [1]: 113 % of control

COc1cc(/C=C2\N=C(c3cccc(C)c3)OC2=O)ccc1O
T/C [1]: 91 % of control
T/C [12]: 100 % of control
T/C [2]: 99 % of control

CCN(CC)CCNc1ccc(COC(=O)Nc2ccccc2)c2sc3ccccc3c(=O)c12
T/C (dose: 6.25 mg/kg/injection, schedule: Q01DX005 (ip), vehicle: Klucel + Tween-80): 111 % of control

CC1(C)C=Cc2c(ccc(C(=O)Cc3ccccc3)c2O)O1
T/C [3]: 99 % of control
T/C [4]: 96 % of control
T/C [5]: 93 % of control

O=C(Nc1c(Cl)cc(Cl)cc1Cl)ON=C1CCCCC1
T/C [9]: 96 % of control
T/C [10]: 102 % of control

COc1cc(C(=O)c2c(OC)cccc2C(=O)O)c(OC)cc1C
T/C (dose: 25.0 mg/kg/injection, schedule: Q01DX009 (ip), vehicle: saline with Tween-80): 101 % of control
T/C [1]: 105 % of control
T/C [12]: 110 % of control
T/C [2]: 99 % of control
T/C (dose: 400.0 mg/kg/injection, schedule: Q01DX009 (ip), vehicle: saline with Tween-80): 99 % of control

COc1ccc(C(=O)O[C@@H]2CCN3CC[C@H](C)[C@H]23)cc1
T/C (dose: 12.5 mg/kg/injection, schedule: Q01DX005 (ip), vehicle: Klucel (hydroxypropylcellulose) (HPC)): 102 % of control
T/C (dose: 25.0 mg/kg/injection, schedule: Q01DX005 (ip), vehicle: Klucel (hydroxypropylcellulose) (HPC)): 102 % of control
T/C (dose: 50.0 mg/kg/injection, schedule: Q01DX005 (ip), vehicle: Klucel (hydroxypropylcellulose) (HPC)): 104 % of control

CO[C@H](/C(C)=C/C=C/C(C)=C/c1coc(C)n1)[C@H](C)[C@H]1C[C@@H](O)[C@@]2(C)O[C@H]2/C=C/[C@@H](C)[C@@H]2C[C@@H](CC(=O)O2)C[C@H]2O[C@@H]2C(=O)O1
T/C (dose: 0.1 mg/kg/injection, schedule: Q01DX005 (ip), vehicle: Klucel (hydroxypropylcellulose) (HPC)): 150 % of control
T/C (dose: 0.12 mg/kg/injection, schedule: Q01DX005 (ip), vehicle: Klucel (hydroxypropylcellulose) (HPC)): 150 % of control
T/C (dose: 0.14 mg/kg/injection, schedule: Q01DX005 (ip), vehicle: Klucel (hydroxypropylcellulose) (HPC)): 152 % of control and 160 % of control
T/C (dose: 0.18 mg/kg/injection, schedule: Q01DX005 (ip), vehicle: Klucel (hydroxypropylcellulose) (HPC)): 160 % of control
T/C (dose: 0.24 mg/kg/injection, schedule: Q01DX005 (ip), vehicle: Klucel (hydroxypropylcellulose) (HPC)): 166 % of control
T/C (dose: 0.45 mg/kg/injection, schedule: Q01DX005 (ip), vehicle: Klucel (hydroxypropylcellulose) (HPC)): 171 % of control and 184 % of control and 195 % of control
T/C (dose: 0.67 mg/kg/injection, schedule: Q01DX005 (ip), vehicle: Klucel (hydroxypropylcellulose) (HPC)): 181 % of control and 191 % of control
T/C (dose: 10.0 micrograms/kg/injection, schedule: Q01DX005 (ip), vehicle: Klucel (hydroxypropylcellulose) (HPC)): 104 % of control
T/C (dose: 20.0 micrograms/kg/injection, schedule: Q01DX005 (ip), vehicle: Klucel (hydroxypropylcellulose) (HPC)): 109 % of control and 123 % of control
T/C (dose: 80.0 micrograms/kg/injection, schedule: Q01DX005 (ip), vehicle: Klucel (hydroxypropylcellulose) (HPC)): 163 % of control

O=C1c2ccccc2C(=O)N1C1Cc2nc3ccccc3n2C1=O (stereo unspecified)
T/C [9]: 98 % of control
T/C [10]: 93 % of control
T/C [11]: 89 % of control

CC(C)NCC(O)COc1ccccc1C1CC1 (stereo unspecified)
T/C [6]: 106 % of control
T/C [7]: 104 % of control

COc1ccc(Nc2cc[nH]c(=O)c2NC(C)=O)cc1
T/C [9]: 100 % of control
T/C [10]: 96 % of control
T/C [11]: 94 % of control

COC(=O)C1CC1(Cl)OC (stereo unspecified)
T/C [1]: 102 % of control
T/C [12]: 102 % of control
T/C [2]: 105 % of control

CC(C)c1ccc(C2OCC(C)(C)C(C(C)C)O2)cc1 (stereo unspecified)
T/C (dose: 100.0 mg/kg/injection, schedule: Q04DX003 (ip), vehicle: saline with Tween-80): 108 % of control
T/C (dose: 200.0 mg/kg/injection, schedule: Q04DX003 (ip), vehicle: saline with Tween-80): 105 % of control
T/C (dose: 400.0 mg/kg/injection, schedule: Q04DX003 (ip), vehicle: saline with Tween-80): 109 % of control

Nc1ccc(-c2nnc(-c3ccc(N)cc3)nn2)cc1
T/C (dose: 100.0 mg/kg/injection, schedule: Q01DX001 (ip), vehicle: saline): 94 % of control
T/C (dose: 200.0 mg/kg/injection, schedule: Q01DX001 (ip), vehicle: saline): 92 % of control
T/C (dose: 400.0 mg/kg/injection, schedule: Q01DX001 (ip), vehicle: saline): 95 % of control

N#Cn1c2ccccc2c(=N)c2ccccc21
T/C [9]: 103 % of control
T/C [10]: 102 % of control

O=[Te]=O
T/C (dose: 3.12 mg/kg/injection, schedule: Q01DX005 (ip), vehicle: saline): 103 % of control
T/C (dose: 6.25 mg/kg/injection, schedule: Q01DX005 (ip), vehicle: saline): 110 % of control
T/C (dose: 12.5 mg/kg/injection, schedule: Q01DX005 (ip), vehicle: saline): 105 % of control and 116 % of control

O=C(O)c1cccnn1
T/C [1]: 90 % of control
T/C [12]: 90 % of control

COc1ccc2[nH]c3c(c2c1)-c1ncncc1CC3
T/C [3]: 100 % of control
T/C [4]: 97 % of control
T/C [5]: 106 % of control

CCC1(c2ccccc2)C(=O)N(CCCl)C(=O)N(CCCl)C1=O
T/C (dose: 50.0 mg/kg/injection, schedule: Q01DX009 (ip), vehicle: Klucel (hydroxypropylcellulose) (HPC)): 92 % of control
T/C (dose: 100.0 mg/kg/injection, schedule: Q01DX009 (ip), vehicle: Klucel (hydroxypropylcellulose) (HPC)): 92 % of control
T/C (dose: 200.0 mg/kg/injection, schedule: Q01DX009 (ip), vehicle: Klucel (hydroxypropylcellulose) (HPC)): 92 % of control

C=CCOCN1c2cc(OC)c([C@@]3(C(=O)OC)C[C@@H]4CN(CCc5c3[nH]c3ccccc53)C[C@](O)(CC)C4)cc2[C@@]23CCN4CC=C[C@@](CC)([C@@H](OC(C)=O)[C@](O)(C(=O)OC)[C@H]12)[C@H]43
T/C (dose: 1.0 mg/kg/injection, schedule: Q01DX001 (ip), vehicle: water): 109 % of control
T/C (dose: 2.0 mg/kg/injection, schedule: Q01DX001 (ip), vehicle: water): 111 % of control
T/C (dose: 4.0 mg/kg/injection, schedule: Q01DX001 (ip), vehicle: water): 115 % of control
T/C (dose: 32.0 mg/kg/injection, schedule: Q01DX001 (ip), vehicle: other): 158 % of control

COC(=O)CS(=O)(=O)CCCS(=O)(=O)CC(=O)OC
T/C [6]: 105 % of control
T/C [7]: 99 % of control
T/C [8]: 103 % of control

CN(C)CC(O)c1cc2ccccc2c2ccccc12 (stereo unspecified)
T/C (dose: 12.5 mg/kg/injection, schedule: Q01DX009 (ip), vehicle: saline): 106 % of control
T/C (dose: 25.0 mg/kg/injection, schedule: Q01DX009 (ip), vehicle: saline): 103 % of control
T/C [6]: 100 % of control

Cc1ccccc1N1CC2CC3C=CC2(C1)O3 (stereo unspecified)
T/C [9]: 104 % of control
T/C [10]: 97 % of control
T/C [11]: 97 % of control
